Columns and labels:
Human 5-HT4(d) = biological target: T1, Human 5-HT4(d) (Homo sapiens, UniProt Q13639); test: Agonist-induced cAMP elevation in human 5-HT4(d) transfected HEK293 cells; assay type: cell-based; settings: for Emax: HEK293, cAMP production normalized to the amount produced by 1,000 nM serotonin; for EC50: cAMP elevation (HTRF), human 5-HT4(d) transfected HEK293 cells
T1 construct: expressed in transfected cells
Description: Human 5-HT4(d) transfected HEK293 cells were established in-house. The cells were grown at 37° C. and 5% CO2 in DMEM supplemented with 10% FCS, 20 mM HEPES (pH 7.4), 200 μg/ml hygromycin B (Gibco), 100 units/ml penicillin and 100 μg/ml streptomycin.
The cells were grown to 60-80% confluence. On the previous day before treatment with compounds dialyzed FCS (Gibco) was substituted for normal and the cells were incubated overnight.
Compounds were prepared in 96-well plates (12.5 μl/well). The cells were harvested with PBS/1 mM EDTA, centrifuged and washed with PBS. At the beginning of the assay, cell pellet was resuspended in DMEM supplemented with 20 mM HEPES, 10 μM pargyline (Sigma) and 1 mM 3-isobutyl-1-methylxanthine (Sigma) at the concentration of 1.6×10^5 cells/ml and left for 15 min at room temperature. The reaction was initiated by addition of the cells into plates (12.5 μl/well). After incubation for 15 min at room temperature, 1% Triton X-100 was added to stop the reaction (25 μl/well) and the plates were left for 30 minutes at room temperature. Homogenous time-resolved fluorescence-based cAMP (Schering) detection was made according to the manufacturer's instruction. ARVOsx multilabel counter (Wallac) was used to measure HTRF (excitation 320 nm, emission 665 nm/620 nm, delay time 50 μs, window time 400 μs).
Data was analyzed based on the ratio of fluorescence intensity of each well at 620 nm and 665 nm followed by cAMP quantification using cAMP standard curve. Enhancement of cAMP production elicited by each compound was normalized to the amount of cAMP produced by 1,000 nM serotonin (Sigma).

T1 sequence (Q13639 1-360 isoform Q13639-3): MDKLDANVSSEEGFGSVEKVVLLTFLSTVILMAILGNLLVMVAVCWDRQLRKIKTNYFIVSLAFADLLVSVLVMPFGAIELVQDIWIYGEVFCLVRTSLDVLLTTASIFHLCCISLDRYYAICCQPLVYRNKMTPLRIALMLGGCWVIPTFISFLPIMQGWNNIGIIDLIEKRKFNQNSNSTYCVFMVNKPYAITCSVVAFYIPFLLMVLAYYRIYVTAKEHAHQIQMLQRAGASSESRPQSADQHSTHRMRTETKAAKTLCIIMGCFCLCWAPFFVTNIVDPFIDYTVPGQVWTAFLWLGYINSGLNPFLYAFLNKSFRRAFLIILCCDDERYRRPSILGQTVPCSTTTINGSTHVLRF

| Emax (Human 5-HT4(d)) [%] | EC50 (Human 5-HT4(d)) [nM] | melting point [°C] | Compound |
| --- | --- | --- | --- |
| 45 | 5.5 | 197.2 | O=C(O)C1(CN2CCC(COc3noc4cccc(O[C@H]5CC[C@@H](CO)CC5)c34)CC2)CCOCC1 [Example 46, 4-[(4-{[(4-{[cis-4-(Hydroxymethyl)cyclohexyl]oxy}-1,2-benzisoxazol-3-yl)oxy]methyl}piperidin-1-yl)-methyl]tetrahydro-2H-pyran-4-carboxylic acid] |
| 43 | 4.3 | 188 | O=C(O)C1(CN2CCC(COc3noc4cccc(O[C@H]5CC[C@@H](CO)CC5)c34)CC2)CCCC1 [Example 48, 1-[(4-{[(4-{[cis-4-(Hydroxymethyl)cyclohexyl]oxy}-1,2-benzisoxazol-3-yl)oxy]methyl}piperidin-1-yl)methyl]cyclopentanecarboxylic acid] |
| 50 | 98 | 194.2 | O=C(O)C1(CN2CCC(COc3noc4cccc(OCC5(CO)CCC5)c34)CC2)CCC1 [Example 50] |
| 59 | 2.8 | 171.9 | O=C(O)C1(CN2CCC(CNc3noc4cccc(OCC(F)(F)F)c34)CC2)CCOCC1 [Example 53, 4-{[4-({[4-(2,2,2-Trifluoroethoxy)-1,2-benzisoxazol-3-yl]amino}methyl)piperidin-1-yl]methyl}-tetrahydro-2H-pyran-4-carboxylic acid] |
